# Measurements published in patent publication US6649365B1, “Indolamine derivatives for detecting peptidase activity in culture media” (Bio Merieux, priority 1998, dated 2003).
# Experiments:
# S. agalactiae [1] = experiment: Colony colour on gelled medium of Example 3; assay type: cell-based, Streptococcus agalactiae; parameters: key: —: Absence of coloration; Brown = Colony colour; settings: 37° C.
# Experimental: (§1) L-Pro-BIA, pyroglutamyl-BIA (Pyr-BIA) or Ala-Phe-Pro-BIA is added to this medium. These various media, which are distributed into Petri dishes, are inoculated with various microorganisms: E. coli, K. pneumoniae, C. freundii, p. aeruginosa, S. agalactiae, E. faecium, S. pyogenes, S. epidermidis, C. albicans and C. tropicalis. The dishes are incubated at 37° C. for 48 hours, and the colonies formed are examined visually after incubation for 24 and 48 hours. The colour was noted.
# K. pneumoniae [2] = experiment: Colony colour on gelled medium of Example 3; assay type: cell-based, Klebsiella Pneumoniae; parameters: key: —: Absence of coloration; Brown = Colony colour; settings: 37° C.
# Experimental: as §1
# P. aeruginosa [3] = experiment: Colony colour on gelled medium of Example 3; assay type: cell-based, Pseudomonas aeruginosa; parameters: key: —: Absence of coloration; Brown = Colony colour; settings: 37° C.
# Experimental: as §1
# S. pyogenes [4] = experiment: Colony colour on gelled medium of Example 3; assay type: cell-based, Streptococcus pyogenes; parameters: key: —: Absence of coloration; Brown = Colony colour; settings: 37° C.
# Experimental: as §1
# E. coli [5] = experiment: Colony colour on gelled medium of Example 3; assay type: cell-based, Escherichia coli; parameters: key: —: Absence of coloration; Brown = Colony colour; settings: 37° C.
# Experimental: as §1
# C. freundii [6] = experiment: Colony colour on gelled medium of Example 3; assay type: cell-based, Citrobacter freundii; parameters: key: —: Absence of coloration; Brown = Colony colour; settings: 37° C.
# Experimental: as §1
# E. faecium [7] = experiment: Colony colour on gelled medium of Example 3; assay type: cell-based, Enterococcus faecium; parameters: key: —: Absence of coloration; Brown = Colony colour; settings: 37° C.
# Experimental: as §1
# Klebsiella Pneumoniae = experiment: Colony colour or fluorescence on gelled medium of Example 1; assay type: cell-based; settings: medium of Example 1, substrate 200 mg/L, 24 or 48 hours
# Streptococcus pyogenes = experiment: as above; assay type: cell-based; settings: medium of Example 1, substrate 200 mg/L, 24 or 48 hours
# Escherichia coli = experiment: as above; assay type: cell-based; settings: medium of Example 1, substrate 200 mg/L, 24 or 48 hours
# [8] = tested on: Staphylococcus epidermidis; experiment: as above; assay type: cell-based; settings: medium of Example 1, substrate 200 mg/L, 24 or 48 hours
# Streptococcus agalactiae = experiment: as above; assay type: cell-based; settings: medium of Example 1, substrate 200 mg/L, 24 or 48 hours
# Enterococcus faecium = experiment: as above; assay type: cell-based; settings: medium of Example 1, substrate 200 mg/L, 24 or 48 hours
# Citrobacter freundii = experiment: as above; assay type: cell-based; settings: medium of Example 1, substrate 200 mg/L, 24 or 48 hours
# Pseudomonas aeruginosa = experiment: as above; assay type: cell-based; settings: medium of Example 1, substrate 200 mg/l, 37° C., 24 or 48 hours, ambient light and UV 365 nm
# Experimental: (§2) L-Pro-BIA, or 7-L-prolylamino-4-methylcoumarin (L-Pro-AMC) is added to this medium at a concentration of 200 mg/l. The various media obtained, which are distributed in Petri dishes, are inoculated with microorganisms. The dishes were incubated at 37° C. for 48 hours. The colonies formed were examined visually in ambient light and under a UV lamp (wavelength=365 nm) after incubation for 24 and 48 hours. The colour or the presence of fluorescence was noted. The microorganisms studied were: Pseudomonas aeruginosa and Candida albicans.
# E. faecium [9] = experiment: Coloration or fluorescence in phosphate buffer, microtitration plates (Example 2); assay type: cell-based, Enterococcus faecium; settings: 0.1 M phosphate buffer pH 7.3, 24 to 48 hours
# E. coli [10] = experiment: as above; assay type: cell-based, Escherichia coli; settings: 0.1 M phosphate buffer pH 7.3, 24 to 48 hours
# S. pyogenes [11] = experiment: as above; assay type: cell-based, Streptococcus pyogenes; settings: 0.1 M phosphate buffer pH 7.3, 24 to 48 hours
# C. freundii [12] = experiment: as above; assay type: cell-based, Citrobacter freundii; settings: 0.1 M phosphate buffer pH 7.3, 24 to 48 hours
# P. aeruginosa [13] = experiment: as above; assay type: cell-based, Pseudomonas aeruginosa; settings: 0.1 M phosphate buffer pH 7.3, substrate 400 mg/L, 37° C., 24 to 48 hours
# Experimental: (§3) L-Pro-BIA or L-Pro-AMC is added, at the concentration of 400 mg/L, to a 0.1 M phosphate buffer, pH 7.3, at 25° C. The medium obtained is distributed into the wells of microtitration plates which are inoculated with suspensions of P. aeruginosa or of C. albicans. The plates are incubated for 24 hours at 37° C. The wells are examined visually in ambient light and under a UV lamp, after incubation for 24 to 48 hours.
# K. pneumoniae [14] = experiment: as above; assay type: cell-based, Klebsiella Pneumoniae; settings: 0.1 M phosphate buffer pH 7.3, 24 to 48 hours
# [15] = tested on: genera Escherichia, Klebsiella, Citrobacter, Pseudomonas, Enterococcus, Staphylococcus and Streptococcus; experiment: Preliminary tests in the medium described in Example 1; assay type: cell-based; settings: for leucine-aminopeptidase or proline-aminopeptidase activity demonstrated: substrate added to the medium of Example 1; for revelation of a peptidase activity: medium of Example 1 with addition of the reagents proposed by Lojda and Havrankova (tetrazolium salt and phenazine methosulphate)
# Experimental: In the course of the studies which lead to the present invention, an investigation was, carried out as to whether it was possible to use this enzymatic substrate for detecting microorganisms cultured, in particular, on gelled media. During preliminary tests, L-Leu-BIA or L-Pro-BIA was added to a medium currently used to search for osidases, which is described in Example 1 below.
# Similarly, in this medium, with osidase substrates (5-bromo-4-chloro-3-indolyl-β-D-galactoside and 6-chloro-3-indolyl-β-D-glucuronide), the β-galactos-idase and β-glucuronidase activities of the microorganisms can be detected.
# S. agalactiae [16] = experiment: Coloration or fluorescence in phosphate buffer, microtitration plates (Example 2); assay type: cell-based, Streptococcus agalactiae; settings: 0.1 M phosphate buffer pH 7.3, 24 to 48 hours
# C. albicans [17] = experiment: as above; assay type: cell-based, Candida albicans; settings: 0.1 M phosphate buffer pH 7.3, substrate 400 mg/L, 37° C., 24 to 48 hours
# Experimental: as §3
# Candida albicans = experiment: Colony colour or fluorescence on gelled medium of Example 1; assay type: cell-based; settings: medium of Example 1, substrate 200 mg/l, 37° C., 24 or 48 hours, ambient light and UV 365 nm
# Experimental: as §2
# C. albicans [18] = experiment: Colony colour on gelled medium of Example 3; assay type: cell-based, Candida albicans; parameters: key: —: Absence of coloration; Brown = Colony colour; settings: 37° C.
# Experimental: as §1
# C. tropicalis = experiment: Colony colour on gelled medium of Example 3; assay type: cell-based; parameters: key: —: Absence of coloration; Brown = Colony colour; settings: 37° C.
# Experimental: as §1
# S. epidermidis = experiment: Colony colour on gelled medium of Example 3; assay type: cell-based, Staphylococcus epidermidis; parameters: key: —: Absence of coloration; Brown = Colony colour; settings: 37° C.
# Experimental: as §1
smiles,measurement,setting,value
CC(N)C(=O)NC(Cc1ccccc1)C(=O)N1CCCC1C(=O)Nc1c[nH]c2ccc(Br)cc12 (stereo not drawn) [Ala-Phe-Pro-BIA],Colony colour,S. agalactiae [1]; 24 H,Brown
same,Colony colour,S. agalactiae [1]; 48 H,Brown
same,Colony colour,K. pneumoniae [2]; 24 H,Brown
same,Colony colour,K. pneumoniae [2]; 48 H,Brown
same,Colony colour,P. aeruginosa [3]; 24 H,Brown
same,Colony colour,P. aeruginosa [3]; 48 H,Brown
same,Colony colour,S. pyogenes [4]; 24 H,Brown
same,Colony colour,S. pyogenes [4]; 48 H,Brown
same,Colony colour,E. coli [5]; 24 H,Brown^2
same,Colony colour,E. coli [5]; 48 H,Brown
same,Colony colour,C. freundii [6]; 24 H,Brown
same,Colony colour,C. freundii [6]; 48 H,Brown
same,Colony colour,E. faecium [7]; 24 H,—
same,Colony colour,E. faecium [7]; 48 H,—
C[C@H](N)C(=O)Nc1c[nH]c2ccc(Br)cc12 [L-Ala-BIA],peptidase activity revealed by colour or fluorescence of the colonies,Klebsiella Pneumoniae,no coloration
same,peptidase activity revealed by colour or fluorescence of the colonies,Streptococcus pyogenes,no coloration
same,peptidase activity revealed by colour or fluorescence of the colonies,Escherichia coli,no coloration
same,peptidase activity revealed by colour or fluorescence of the colonies,[8],no coloration
same,peptidase activity revealed by colour or fluorescence of the colonies,Streptococcus agalactiae,no coloration
same,peptidase activity revealed by colour or fluorescence of the colonies,Enterococcus faecium,no coloration
same,peptidase activity revealed by colour or fluorescence of the colonies,Citrobacter freundii,no coloration
same,peptidase activity revealed by colour or fluorescence of the colonies,Pseudomonas aeruginosa,no coloration
"Cc1cc(=O)oc2cc(NC(=O)[C@@H](N)CC(C)C)ccc12 [L-Leu-AMC, 7-L-leucylamino-4-methylcoumarin]",peptidase activity revealed by coloration or fluorescence of the wells,E. faecium [9],"detected, by emission of fluorescence"
same,peptidase activity revealed by coloration or fluorescence of the wells,E. coli [10],"detected, by emission of fluorescence"
same,peptidase activity revealed by coloration or fluorescence of the wells,S. pyogenes [11],"detected, by emission of fluorescence"
same,peptidase activity revealed by coloration or fluorescence of the wells,C. freundii [12],"detected, by emission of fluorescence"
same,peptidase activity revealed by coloration or fluorescence of the wells,P. aeruginosa [13],"detected, by emission of fluorescence"
same,peptidase activity revealed by coloration or fluorescence of the wells,K. pneumoniae [14],"detected, by emission of fluorescence"
same,leucine-aminopeptidase or proline-aminopeptidase activity demonstrated,[15],a fluorescence
same,peptidase activity revealed by coloration or fluorescence of the wells,S. agalactiae [16],"detected, by emission of fluorescence"
"CC(C)C[C@H](N)C(=O)Nc1c[nH]c2ccc(Br)cc12 [L-Leu-BIA, 3-L-leucylamino-5-bromoindole]",peptidase activity revealed by colour or fluorescence of the colonies,Klebsiella Pneumoniae,no coloration
same,peptidase activity revealed by colour or fluorescence of the colonies,Streptococcus pyogenes,no coloration
same,peptidase activity revealed by coloration or fluorescence of the wells,E. faecium [9],did not make it possible to detect
same,peptidase activity revealed by coloration or fluorescence of the wells,E. coli [10],did not make it possible to detect
same,peptidase activity revealed by colour or fluorescence of the colonies,Escherichia coli,no coloration
same,peptidase activity revealed by coloration or fluorescence of the wells,S. pyogenes [11],did not make it possible to detect
same,peptidase activity revealed by coloration or fluorescence of the wells,C. freundii [12],did not make it possible to detect
same,peptidase activity revealed by coloration or fluorescence of the wells,P. aeruginosa [13],did not make it possible to detect
same,peptidase activity revealed by colour or fluorescence of the colonies,[8],no coloration
same,peptidase activity revealed by colour or fluorescence of the colonies,Streptococcus agalactiae,no coloration
same,peptidase activity revealed by coloration or fluorescence of the wells,K. pneumoniae [14],did not make it possible to detect
same,peptidase activity revealed by colour or fluorescence of the colonies,Enterococcus faecium,no coloration
same,revelation of a peptidase activity,[15],without allowing the revelation of a peptidase activity
same,leucine-aminopeptidase or proline-aminopeptidase activity demonstrated,[15],not possible to demonstrate
same,peptidase activity revealed by coloration or fluorescence of the wells,S. agalactiae [16],did not make it possible to detect
same,peptidase activity revealed by colour or fluorescence of the colonies,Citrobacter freundii,no coloration
same,peptidase activity revealed by colour or fluorescence of the colonies,Pseudomonas aeruginosa,no coloration
"Cc1cc(=O)oc2cc(NC(=O)[C@@H]3CCCN3)ccc12 [L-Pro-AMC, 7-L-prolylamino-4-methylcoumarin]",peptidase activity revealed by coloration or fluorescence of the wells,C. albicans [17],possible to reveal an L-Pro-aminopeptidase activity
same,peptidase activity revealed by coloration or fluorescence of the wells,P. aeruginosa [13],possible to reveal an L-Pro-aminopeptidase activity
same,leucine-aminopeptidase or proline-aminopeptidase activity demonstrated,[15],a fluorescence
same,peptidase activity revealed by colour or fluorescence of the colonies,Pseudomonas aeruginosa,emission of a fluorescence
same,peptidase activity revealed by colour or fluorescence of the colonies,Candida albicans,emission of a fluorescence
O=C(Nc1c[nH]c2ccc(Br)cc12)[C@@H]1CCCN1 [L-Pro-BIA],Colony colour,C. albicans [18]; 24 H,Brown
same,Colony colour,C. albicans [18]; 48 H,Brown
same,peptidase activity revealed by coloration or fluorescence of the wells,C. albicans [17],No coloration
same,peptidase activity revealed by coloration or fluorescence of the wells,P. aeruginosa [13],No coloration
same,Colony colour,K. pneumoniae [2]; 24 H,—
same,Colony colour,K. pneumoniae [2]; 48 H,—
same,Colony colour,P. aeruginosa [3]; 24 H,Brown
same,Colony colour,P. aeruginosa [3]; 48 H,Brown
same,Colony colour,E. coli [5]; 24 H,—^1
same,Colony colour,E. coli [5]; 48 H,—
same,Colony colour,C. freundii [6]; 24 H,—
same,Colony colour,C. freundii [6]; 48 H,—
same,Colony colour,C. tropicalis; 24 H,—
same,Colony colour,C. tropicalis; 48 H,—
same,revelation of a peptidase activity,[15],without allowing the revelation of a peptidase activity
same,leucine-aminopeptidase or proline-aminopeptidase activity demonstrated,[15],not possible to demonstrate
same,peptidase activity revealed by colour or fluorescence of the colonies,Pseudomonas aeruginosa,no coloration
same,peptidase activity revealed by colour or fluorescence of the colonies,Candida albicans,no coloration
"O=C1CCC(C(=O)Nc2c[nH]c3ccc(Br)cc23)N1 (centres unmarked) [Pyr-BIA, pyroglutamyl-BIA]",Colony colour,S. epidermidis; 24 H,—
same,Colony colour,S. epidermidis; 48 H,—
same,Colony colour,S. agalactiae [1]; 24 H,—
same,Colony colour,S. agalactiae [1]; 48 H,—
same,Colony colour,K. pneumoniae [2]; 24 H,—
same,Colony colour,K. pneumoniae [2]; 48 H,Brown
same,Colony colour,P. aeruginosa [3]; 24 H,Brown
same,Colony colour,P. aeruginosa [3]; 48 H,Brown
same,Colony colour,S. pyogenes [4]; 24 H,Brown
same,Colony colour,S. pyogenes [4]; 48 H,Brown
same,Colony colour,E. coli [5]; 24 H,—
same,Colony colour,E. coli [5]; 48 H,—
same,Colony colour,C. freundii [6]; 24 H,—
same,Colony colour,C. freundii [6]; 48 H,Brown
same,Colony colour,E. faecium [7]; 24 H,Brown
same,Colony colour,E. faecium [7]; 48 H,Brown
